This is an account of results in PubChem BioAssay AID1188 (EPA DSSTox, 2008).

“And” between values parts separate entries of the source, which are not always exact repeats. Equal values may be shown once. The source made the active and inactive calls.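 How the source made its calls: active means a concentration killing half the fathead minnows in the acute test was determined; inconclusive means some fish died but not half at top dose; inactive means no fish died even at top dose.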

The data set has as its system Fathead minnow (Pimephales promelas) acute toxicity, lethality. Nature of the data set: DSSTox (EPAFHM) EPA Fathead Minnow Acute Toxicity. An excerpt: The EPA Fathead Minnow Acute Toxicity database was generated by the U.S. EPA Mid-Continental Ecology Division (MED) for the purpose of developing an expert system to predict acute toxicity from chemical structure based on mode of action considerations. […] A second valuable aspect of this database, from a QSAR modeling perspective, is the inclusion of general mode-of-action (MOA) classifications of acute toxicity response for individual chemicals derived from study results. MOA assignments are biologically based classifications, allowing definition of chemical similarity based upon biological activity instead of organic chemistry functional class as most commonly employed in QSAR study. MOA classifications should strengthen the scientific basis for construction of individual QSARs. However, it is cautioned that the broad MOA categorizations should not be construed to represent a single molecular mechanism; for example, CNS seizure agents and respiratory inhibitors are known to act through a variety of receptors. The EPA Fathead Minnow database and results have been used by EPA MED to build components of the ASTER prediction system, which incorporates MOA-based QSARs for the prediction of aquatic toxicity of environmental and industrial chemicals. Briefly, MOA classifications for individual chemicals, derived from experiments and provided in the EPA Fathead Minnow database, were used to derive substructural rules for assigning a new chemical to an MOA category based solely on chemical structure. Once a new chemical is assigned to an MOA category on this basis, the logP-based QSAR for that MOA category is applied.
The DSSTox EPAFHM database (available from the DSSTox Source URL) includes information pertaining to organic chemical class assignments (ChemClass_FHM), acute toxicity in fathead minnow (LC50_mg), dose-response assessments (LC50_Ratio, ExcessToxicityIndex), behavioral assessments (FishBehaviorTest), joint toxicity MOA evaluations of mixtures (MOA_MixtureTest), and additional MOA evaluation of fish acute toxicity syndrome (FishAcuteToxSyndrome) in rainbow trout. All of these indicators, to the extent available, were considered in the determination of MOA and, additionally, were used to determine a level of confidence in the MOA assignment for each chemical (MOA_Confidence). […] Activity Score is mapping of LOG10 (1/LC50_mmol) activity values spanning activity range [MIN, MAX] onto Integer 1-100 Activity range, where 100 is highest potency and 1 is lowest. If Activity Outcome is "active": Activity Score = 100 * INTEGER[(log10(1/ LC50_mmol) - MIN)/([…])].
On to `CCC(C)c1cc([N+](=O)[O-])cc([N+](=O)[O-])c1O` (configuration not stated), for which the Potency is 2.23 µM. Same read-out and setting: the result for `CC(O)CN` (configuration not stated) reads 33600 µM; that for `c1ccc2ccccc2c1`, 47.9 µM. As for `Oc1ccccc1`, the Potency is 347 µM.

With `O=Cc1cccnc1`, the Potency is 153 µM. Still for that read-out and setting: the result for `CC(=O)CC(=O)c1ccccc1` reads 6.78 µM; that for `c1ccc(Oc2ccccc2)cc1`, 23.5 µM; that for `OC(C(F)(F)F)C(F)(F)F`, 1450 µM. Consider `C=CCC1(C(C)CCC)C(=O)N=C(O)NC1=O` (configuration not stated), for which the Potency is 90.7 µM. Take `OCC(F)(F)F`: the Potency was 1190 µM. Still for that read-out and setting: the figure for `C=C[C@@]1(C)CC[C@H]2C(=CC[C@@H]3[C@]2(C)CCC[C@@]3(C)C(=O)O)C1` is 2.88 µM; for `Nc1c(Cl)c(Cl)cc(Cl)c1Cl` it is 1.17 µM. On the same count and under the same terms, the result for `CCCCCCCO` reads 297 µM. Turning to `O=C(c1ccccc1)c1ccncc1`, the Potency is 562 µM. Turning to `C[N+](C)(C)c1ccccc1`, the Potency is 924 µM and 1000 µM. The same measure, in the same setting: the result for `N#CCCCCC#N` reads 17900 µM; that for `C#CC(O)(c1ccccc1)c1ccccc1`, 53.3 µM.

Regarding `CC(C)=CC1C(C(=O)OCc2coc(Cc3ccccc3)c2)C1(C)C` (configuration not stated), the Potency was 0.0182 µM. The same measure, in the same setting: the figure for `C1COCCO1` is 117000 µM.

On to `CCOP(=S)(OCC)Oc1cc(C)nc(C(C)C)n1`, for which the Potency is 30.7 µM. For `CNC(=O)O/N=C(\C)SC`, the Potency was 13 µM. Same read-out and setting: the figure for `CCCCCCCCC#N` is 37.7 µM; for `CCCCCCCCCc1ccc(O)cc1` it is 0.635 µM. Take `Oc1ccc(N=Nc2ccccc2)cc1`: the Potency is 6 µM. On the same count and under the same terms, the figure for `O=C(Oc1ccccc1)c1ccccc1O` is 5.51 µM.

In the case of `ON=C1CCCCC1`, the Potency is 1840 µM.

With `Oc1ccccc1Cl`, the Potency was 88.7 µM. Still for that read-out and setting: the result for `CCCCCCOC(C)=O` reads 30.5 µM.

Take `Cc1cc2nc3c(=O)[nH]c(=O)nc-3n(C[C@H](O)[C@H](O)[C@H](O)CO)c2cc1C`: the outcome was “inactive; moa not determined either due to lack of toxicity at saturation or late test res”. For the compound `COc1cc(OC)c(OC)cc1C=O`, the Potency is 252 µM.

Take `O=[N+]([O-])c1cc([N+](=O)[O-])c(Cl)cc1Cl`: the Potency was 0.192 µM.

With `CCOC(=O)c1cccc(N)c1`, the Potency is 302 µM. Still for that read-out and setting: the result for `Oc1ccccc1-c1ccccc1` reads 36.1 µM. On the same count and under the same terms, the figure for `C#CC(C)(O)c1ccccc1` (configuration not stated) is 773 µM.

Take `Cc1ccc(SSc2ccc(C)cc2)cc1`: the outcome was “inactive; moa not determined either due to lack of toxicity at saturation or late test res”. `O=Cc1cc([N+](=O)[O-])ccc1Cl`: the Potency was 20.9 µM. The same measure, in the same setting: the result for `C=C(C)C(=O)OCCO` reads 1740 µM; that for `c1ccc2occc2c1`, 119 µM; that for `OC1CCCCC1`, 7030 µM. Same read-out and setting: the result for `C=CCOC(=O)C(=C)C` reads 7.85 µM; that for `CC(=O)C(C)C`, 10000 µM.

In the case of `CCNc1cccc(C)c1`, the Potency was 366 µM. The same measure, in the same setting: the figure for `Clc1cccc(Cl)c1` is 54.6 µM; for `CCCCC(C)=O` it is 4270 µM; for `CNC(=O)Oc1cccc2ccccc12` it is 43.5 µM. Consider `N#Cc1cc(Cl)ccc1N`, for which the Potency is 187 µM.

In the case of `CCc1ccccc1`, the Potency was 98.9 µM. For `CCCCCCCCCCCN`, the Potency is 1.23 µM.

As for `Cc1cc(Cl)nc(N)n1`, the Potency is 982 µM.

Consider `IC(I)I`, for which the Potency is 7.42 µM.

On to `CCN(CC)CCCC(C)=O`, for which the Potency was 2140 µM. Consider `O=Cc1cccc(C(F)(F)F)c1`, for which the Potency was 5.31 µM. With `Cc1ccc(O)c(C)c1`, the Potency was 136 µM. On to `CCCCCCCCOC(=O)c1ccccc1C(=O)OCCCCCCCC`, for which the outcome is “inactive; moa not determined either due to lack of toxicity at saturation or late test res”. With `NC(=O)c1c(Cl)cccc1Cl`, the Potency is 2470 µM. Same read-out and setting: the result for `C1C2CC3CC1CC(C2)C3` reads 2.06 µM. Regarding `Cc1ccc(OP(=O)(Oc2ccc(C)c(C)c2)Oc2ccc(C)c(C)c2)cc1C`, the outcome was “inactive; moa not determined either due to lack of toxicity at saturation or late test res”. Take `Cn1c(=O)c2c(ncn2C)n(C)c1=O`: the Potency was 778 µM.

Turning to `CC#CCO`, the Potency is 144 µM. With `c1cc[c]([Sn]([c]2ccccc2)([c]2ccccc2)[c]2ccccc2)cc1`, the outcome is “inactive; moa not determined either due to lack of toxicity at saturation or late test res”. Consider `O=S(Cc1ccccc1)Cc1ccccc1`, for which the Potency was 348 µM. As for `Cc1ccccn1`, the Potency was 9630 µM.

Consider `Oc1cc(Cl)c(Cl)c(Cl)c1Cl`, for which the Potency was 1.77 µM.

In the case of `CCCCCCBr`, the Potency is 20.9 µM. For the compound `CCc1ccc(N)cc1`, the Potency is 602 µM. The same measure, in the same setting: the result for `Nc1ccc(O)c([N+](=O)[O-])c1` reads 235 µM. In the case of `CCc1c(Br)c(Br)c(Br)c(Br)c1Br`, the outcome is “inactive; moa not determined either due to lack of toxicity at saturation or late test res”.

On to `COCCN`, for which the Potency is 6980 µM. `CCOC(=O)c1ccccc1C(=O)OCC`: the Potency was 143 µM. Same read-out and setting: the figure for `Oc1cc(Cl)c(Cl)cc1O` is 4.97 µM; for `O=[N+]([O-])c1cccc(Cl)c1` it is 119 µM.

In the case of `Nc1ccc(F)cc1C(F)(F)F`, the Potency is 165 µM. The same measure, in the same setting: the result for `COC(=O)c1ccc([N+](=O)[O-])cc1` reads 131 µM. Same read-out and setting: the result for `Oc1c(Cl)cc(Cl)c(Cl)c1Cl` reads 4.44 µM; that for `Oc1cccnc1Cl`, 4800 µM; that for `Cc1cccc(Cl)c1C#N`, 99.6 µM. As to `CNc1ccccc1`, the Potency is 933 µM.

In the case of `CCOc1cc(C=O)ccc1O`, the Potency is 527 µM.

For the compound `Cc1nnc(N)nc1C`, the Potency was 7670 µM. Same read-out and setting: the result for `COc1cc(C=O)cc(Br)c1O` reads 258 µM; that for `CCN(CCO)c1cccc(C)c1`, 295 µM; that for `CCN(CC)C1CCCCC1`, 138 µM. The same measure, in the same setting: the result for `Oc1cccc2ccccc12` reads 32.1 µM. Same read-out and setting: the result for `Oc1cccnc1Br` reads 2700 µM. For `Cc1ccccc1O`, the Potency was 129 µM. As for `C=C(C)C(=O)OCCOCC`, the Potency is 175 µM. On the same count and under the same terms, the result for `CC1(C)[C@@H]2CC[C@@]1(C)C(=O)[C@H]2Br` reads 296 µM; that for `O=Cc1cc(Br)cc(Br)c1O`, 3.04 µM. For the compound `NC(=O)c1ccccc1O`, the Potency was 736 µM. With `Cc1ccccc1F`, the Potency is 176 µM. On the same count and under the same terms, the result for `CCCCCCCCN` reads 40.2 µM.

With `O=Cc1ccc(Cl)cc1Cl`, the Potency is 10.3 µM. On to `O=C1c2ccccc2C(=O)c2ccccc21`, for which the outcome is “inactive; moa not determined either due to lack of toxicity at saturation or late test res”. Take `O=[N+]([O-])c1cccc(P(=O)(c2cccc([N+](=O)[O-])c2)c2cccc([N+](=O)[O-])c2)c1`: the outcome was “inactive; moa not determined either due to lack of toxicity at saturation or late test res”. In the case of `COC(=O)c1ccc(C#N)cc1`, the Potency is 290 µM. On the same count and under the same terms, the result for `CCCCCCCC(C)=O` reads 107 µM; that for `CC1(C)NC(=O)NC1=O`, 129000 µM; that for `CC(C)[C@@H]1CC[C@@H](C)C[C@H]1O`, 121 µM. As for `CC(C)(C)c1ccc(Oc2cccc(C=O)c2)cc1`, the Potency is 1.45 µM. For the compound `CCN(CC)c1ccccc1`, the Potency is 110 µM. With `C=CCCCCCCC=C`, the Potency was 2.1 µM. Still for that read-out and setting: the figure for `Cc1ccncc1` is 4330 µM; for `Cc1ccc(C)o1` it is 740 µM; for `O[C@@H]1C[C@H]2CC[C@@H]1C2` it is 2030 µM.

Turning to `N#CCC#N`, the Potency was 8.48 µM.

In the case of `CS(C)=O`, the Potency was 435000 µM. `Nc1ccc(Br)cc1`: the Potency is 276 µM. On the same count and under the same terms, the result for `CC(=O)c1ccc(Cl)c([N+](=O)[O-])c1` reads 27.6 µM. On the same count and under the same terms, the figure for `CN(C)Cc1ccccc1` is 280 µM. For the compound `NCCc1ccccn1`, the outcome was “inactive; moa not determined either due to lack of toxicity at saturation or late test res”.

With `Nc1ccc(Cl)c(Cl)c1Cl`, the Potency was 18.5 µM.

Regarding `CN(C)c1ccc(/C=C/C=O)cc1`, the Potency was 36.7 µM. The same measure, in the same setting: the figure for `C=CC=O` is 0.303 µM; for `C=Cc1cccc(CCl)c1` it is 2.03 µM; for `OCCOCCOCCO` it is 459000 µM.

Take `ClC(Cl)Cl`: the Potency is 592 µM. `CCCCCCC(C)N` (configuration not stated): the Potency is 40.2 µM.
